Data on 11 compounds can be found in ChEMBL document CHEMBL1201862, “PubChem BioAssay data set” (2004).

Some test systems named below: SF-539; HL-60; MDA-N; TK-10; LOX IMVI; 786-0; SK-MEL-2; Malme-3M; NCI/ADR-RES; SN12C; IGROV-1; A549; CAKI-1; Hs-578T; MOLT-4; EKVX; SF-268; RPMI-8226; NCI-H226.
Common to all, as to assay: NCI-60 cell line screen, 48 h

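1) Cells in 96-well plates. 2) Compound, 48 h, 5 concentrations. 3) Linear interpolation between surrounding doses. 4) Unreached endpoint = highest concentration. Here, GI50 denotes the concentration required for 50% inhibition of growth.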 Activity calls are given as the source filed them. Cut-off read from the data, not from the text of the source: active = GI50 up to about 1.1 µM and inactive = higher.

Turning to `COc1ccc2c(c1)/C(=C\c1c(-c3ccccc3)nc3n1CCS3)C(=O)N2`, the GI50 in the assay on SF-539 is 5.9 µM (inactive); in the assay on HL-60, 3.04 µM (inactive); in the assay with MDA-N it was 1.87 µM (inactive); in the assay on TK-10 it was 10.7 µM (inactive); with LOX IMVI it was 7.64 µM (inactive); with 786-0, 11.9 µM (inactive). The GI50 in the assay with SK-MEL-2 was 5.25 µM (inactive); in the assay on Malme-3M, 12.2 µM (inactive); with NCI/ADR-RES, 4.5 µM (inactive); in the assay with SN12C it was 12.4 µM (inactive); with IGROV-1, 4.92 µM (inactive); with A549, 5.57 µM (inactive). For the same compound, the GI50 was 4.99 µM (inactive) in the assay with CAKI-1; 11 µM (inactive) in the assay on Hs-578T; 2.78 µM (inactive) in the assay on MOLT-4; 12.8 µM (inactive) with EKVX; 9.2 µM (inactive) in the assay with SF-268; 5.26 µM (inactive) with RPMI-8226.

Take `Cc1cc(N(CCC#N)CCC#N)ccc1C(/N=N/c1ccc([N+](=O)[O-])cc1)=N\NC(=O)c1ccccc1`: the GI50 with SF-539 was 15 µM (inactive); with HL-60 it was 32.1 µM (inactive); in the assay on MDA-N it was 6.25 µM (inactive); in the assay with TK-10 it was 61.9 µM (inactive); with NCI-H226, 39.1 µM (inactive); in the assay on 786-0 it was 47.9 µM (inactive). Further, the GI50 in the assay on SK-MEL-2 was 67 µM (inactive); in the assay with Malme-3M, 56.9 µM (inactive); in the assay on NCI/ADR-RES it was 51.5 µM (inactive); with SN12C, 43.3 µM (inactive); in the assay on IGROV-1 it was 47 µM (inactive); in the assay on A549 it was 57.1 µM (inactive). The GI50 with CAKI-1 was 72.1 µM (inactive); in the assay with Hs-578T it was 25.1 µM (inactive); with MOLT-4 it was 45.2 µM (inactive); with EKVX it was 63.4 µM (inactive); with SF-268, 32.3 µM (inactive); in the assay with RPMI-8226 it was 75.9 µM (inactive).

With `Cc1cn2c(/C=C3/C(=O)Nc4ccccc43)c(C)nc2s1`, the GI50 is 1.33 µM (inactive) in the assay with SF-539; 0.321 µM (active) in the assay with HL-60; 0.165 µM (active) with MDA-N; 3.78 µM (inactive) with TK-10; 3.46 µM (inactive) in the assay with LOX IMVI; 3.82 µM (inactive) in the assay on 786-0. In addition, the GI50 in the assay on SK-MEL-2 was 1.32 µM (inactive); in the assay with Malme-3M it was 2.61 µM (inactive); in the assay on NCI/ADR-RES, 2.39 µM (inactive); with SN12C, 7.03 µM (inactive); in the assay on IGROV-1 it was 0.634 µM (active); in the assay on A549, 2.02 µM (inactive). For the same compound, the GI50 in the assay with CAKI-1 was 3.07 µM (inactive); in the assay on Hs-578T it was 1.99 µM (inactive); in the assay on MOLT-4, 0.581 µM (active); with EKVX, 6.11 µM (inactive); with SF-268, 3.98 µM (inactive); in the assay with RPMI-8226 it was 1.75 µM (inactive).

Take `C1=N\c2ccc(cc2)-c2ccc(cc2)/N=C\c2ccc(cc2)OCc2cccc(n2)COc2ccc/1cc2`: the GI50 with SF-539 was > 100 µM (inactive); in the assay on HL-60, > 100 µM (inactive); in the assay with MDA-N it was > 100 µM (inactive); with NCI-H226, 37 µM (inactive); in the assay with 786-0, > 100 µM (inactive); with SK-MEL-2, > 100 µM (inactive). The GI50 is 33 µM (inactive) with Malme-3M; 99.3 µM (inactive) in the assay with NCI/ADR-RES; > 100 µM (inactive) in the assay with SN12C; > 100 µM (inactive) with IGROV-1; > 100 µM (inactive) in the assay on A549; > 100 µM (inactive) in the assay on CAKI-1. Further, the GI50 in the assay with Hs-578T is 18.2 µM (inactive); in the assay with MOLT-4, 85.3 µM (inactive); in the assay with EKVX it was 45.8 µM (inactive); in the assay on SF-268, 16.1 µM (inactive); in the assay on RPMI-8226, > 100 µM (inactive).

Take `COC(=O)C1CCC(=O)N1C(c1ccc(OC)cc1)c1cc(OC)c(OC)c(OC)c1` (stereo not drawn): the GI50 in the assay on SF-539 is 0.274 µM (active); with HL-60, 0.245 µM (active); in the assay on MDA-N, 0.104 µM (active); in the assay with TK-10, > 37.8 µM (inactive); in the assay on NCI-H226, 0.324 µM (active); with LOX IMVI, 0.356 µM (active). Besides, the GI50 with 786-0 is 0.507 µM (active); with SK-MEL-2, 0.649 µM (active); in the assay on NCI/ADR-RES it was 0.258 µM (active); in the assay with SN12C it was 0.531 µM (active); with IGROV-1, 0.274 µM (active); with A549, 0.449 µM (active). Also, the GI50 was 0.313 µM (active) in the assay on CAKI-1; 0.184 µM (active) with Hs-578T; 0.39 µM (active) in the assay on MOLT-4; 0.625 µM (active) in the assay on SF-268; 0.239 µM (active) in the assay on RPMI-8226.

For the compound `C=C(C)COc1cc(/N=C(/S)OC(C)C)ccc1Cl`, the GI50 is 16.1 µM (inactive) in the assay on SF-539; 15.6 µM (inactive) in the assay with HL-60; 16.7 µM (inactive) in the assay with MDA-N; 15.2 µM (inactive) with TK-10; 17.9 µM (inactive) in the assay with NCI-H226; 16.3 µM (inactive) with LOX IMVI. For the same compound, the GI50 in the assay with 786-0 was 16.6 µM (inactive); in the assay on SK-MEL-2, 13.6 µM (inactive); in the assay with NCI/ADR-RES, 15.2 µM (inactive); with SN12C it was 16.1 µM (inactive); in the assay with IGROV-1, 16.6 µM (inactive); with A549, 12.7 µM (inactive). Further, the GI50 with CAKI-1 is 15.3 µM (inactive); in the assay with Hs-578T, 20.4 µM (inactive); in the assay with MOLT-4, 12.1 µM (inactive); with EKVX, 11.8 µM (inactive); in the assay on SF-268 it was 19.5 µM (inactive); with RPMI-8226 it was 20 µM (inactive).

`CCOC(=O)C(Cc1ccc2c(c1)CCC2)(Cc1ccc2c(c1)CCC2)C(=O)OCC`: the GI50 was 81.7 µM (inactive) with SF-539; 31.5 µM (inactive) with HL-60; 46 µM (inactive) in the assay on MDA-N; > 100 µM (inactive) in the assay on TK-10; 71.1 µM (inactive) in the assay on LOX IMVI; 94.2 µM (inactive) with 786-0. Moreover, the GI50 in the assay with SK-MEL-2 was 35.6 µM (inactive); with Malme-3M it was 21.1 µM (inactive); in the assay with NCI/ADR-RES it was > 100 µM (inactive); with IGROV-1 it was > 100 µM (inactive); in the assay with A549, 47.5 µM (inactive); with CAKI-1 it was > 100 µM (inactive). In addition, the GI50 in the assay on Hs-578T was > 100 µM (inactive); in the assay on MOLT-4 it was 23.6 µM (inactive); with EKVX it was 17.4 µM (inactive); with SF-268, 56.9 µM (inactive); with RPMI-8226 it was 55.7 µM (inactive).

For `C[C@]12CC[C@@H]3c4cc(Br)c(O)c(Br)c4CC[C@H]3[C@@H]1CC(Br)C2=O` (stereo partly drawn), the GI50 in the assay on SF-539 was 7.52 µM (inactive); in the assay on HL-60, 2.59 µM (inactive); with MDA-N it was 5.79 µM (inactive); in the assay with TK-10, 14.2 µM (inactive); with NCI-H226 it was 6.5 µM (inactive); with LOX IMVI it was 3.57 µM (inactive). For the same compound, the GI50 in the assay on 786-0 was 4.24 µM (inactive); in the assay on SK-MEL-2, 12.2 µM (inactive); with Malme-3M, 15.2 µM (inactive); in the assay with NCI/ADR-RES, 4.63 µM (inactive); in the assay with SN12C, 4.53 µM (inactive); with IGROV-1, 9.23 µM (inactive). Moreover, the GI50 in the assay with A549 is 17.4 µM (inactive); in the assay on CAKI-1, 3.7 µM (inactive); in the assay on Hs-578T, 5.86 µM (inactive); in the assay with MOLT-4, 2.53 µM (inactive); in the assay with EKVX it was 13.2 µM (inactive); in the assay with SF-268, 5.68 µM (inactive).

For `C=CCN1C[C@@H](C)N([C@@H](c2ccccc2)c2ccc(C(=O)N(CC)CC)cc2)C[C@@H]1C`, the GI50 in the assay with SF-539 is > 100 µM (inactive); in the assay with HL-60, > 100 µM (inactive); in the assay with MDA-N, > 100 µM (inactive); in the assay on NCI-H226 it was 81.7 µM (inactive); in the assay with 786-0, > 100 µM (inactive); in the assay on SK-MEL-2, > 100 µM (inactive). For the same compound, the GI50 in the assay with Malme-3M, with NCI/ADR-RES, in the assay with SN12C, in the assay on IGROV-1, with A549 and with CAKI-1 was > 100 µM (inactive) in each case. Also, the GI50 in the assay on Hs-578T was > 100 µM (inactive); in the assay on MOLT-4 it was 33.3 µM (inactive); in the assay on EKVX it was > 100 µM (inactive); in the assay with SF-268, > 100 µM (inactive); in the assay with RPMI-8226 it was 95.5 µM (inactive).

In the case of `Cc1nccn1S(=O)(=O)c1ccc(Br)cc1Br`, the GI50 was 22.6 µM (inactive) in the assay with SF-539; 19.1 µM (inactive) with HL-60; 20.7 µM (inactive) in the assay on MDA-N; 38.6 µM (inactive) with TK-10; 40.9 µM (inactive) in the assay with LOX IMVI; 45.7 µM (inactive) in the assay with 786-0. The GI50 in the assay on SK-MEL-2 was 22.1 µM (inactive); in the assay with Malme-3M, 50.8 µM (inactive); with NCI/ADR-RES, 28.5 µM (inactive); with SN12C, 29.7 µM (inactive); in the assay on IGROV-1 it was 41.8 µM (inactive); in the assay on A549 it was 25.9 µM (inactive). The GI50 in the assay with CAKI-1 is 30 µM (inactive); in the assay on Hs-578T, 41.1 µM (inactive); in the assay on MOLT-4 it was 29 µM (inactive); with EKVX it was 26.9 µM (inactive); in the assay on SF-268, 37.2 µM (inactive); with RPMI-8226, 19.5 µM (inactive).

As for `CC1OC(OC2C(CO)OC(O[C@H]3CC[C@@]4(C)C(=CC[C@H]5[C@@H]6C[C@@H]7O[C@](O)(CC[C@@H](C)COC8OC(CO)C(O)C(O)C8O)[C@@H](C)[C@@H]7[C@@]6(C)CC[C@@H]54)C3)C(OC3OC(C)C(O)C(O)C3O)C2O)C(O)C(O)C1O` (stereo partly drawn), the GI50 was 1.95 µM (inactive) in the assay on SF-539; 2.13 µM (inactive) with HL-60; 2.89 µM (inactive) in the assay with MDA-N; 8.45 µM (inactive) with TK-10; 1.56 µM (inactive) in the assay on LOX IMVI; 2.07 µM (inactive) in the assay with 786-0. For the same compound, the GI50 in the assay with SK-MEL-2 is 4.98 µM (inactive); in the assay on Malme-3M, 1.89 µM (inactive); in the assay on NCI/ADR-RES it was 2.06 µM (inactive); with SN12C, 2.2 µM (inactive); in the assay with A549 it was 1.57 µM (inactive); in the assay with CAKI-1, 2.47 µM (inactive). Moreover, the GI50 with Hs-578T is 33.1 µM (inactive); in the assay on MOLT-4, 1.58 µM (inactive); in the assay with EKVX it was 9.38 µM (inactive); in the assay on SF-268 it was 3.23 µM (inactive); with RPMI-8226, 2.34 µM (inactive).
